Reference: US20220365085A1, “B[…], THE USE OF B[…], SENSORS […] WITH THE SAID B[…] AND THE DETECTION METHOD OF SARS-COV-2 VIRUS” (SENSDX SPÓLKA AKCYJNA, priority 2019, published 2022)
Numbered stars: 1 amine (or outer) side, 2 acyl side, 3 side chain; on linkers, the order of the positions; unused ones are H or OH. Square brackets hold non-standard residues; d marks the D form. Peptide text beside a SMILES is read from it. * marks the point of attachment. ξ: configuration not given here. X1 = O=C([C@@H](N[*:1])c1cnc[nH]1)[*:2]; Ile(3ξ) = CCC(C)[C@H](N)C(=O)O; Lauroyl = CCCCCCCCCCCC(=O)*

Target: WHN-N protein (SARS-CoV-2 nucleocapsid N protein) (Severe acute respiratory syndrome coronavirus 2, UniProt P0DTC9)
Assay type: binding

SMILES	specificity of the peptide sequence
CCCCCCCCCCCC(=O)N[C@H](C(=O)N[C@H](C(=O)N[C@@H](CO)C(=O)N[C@@H](CC(N)=O)C(=O)N[C@@H](Cc1c[nH]cn1)C(=O)N[C@@H](CO)C(=O)N[C@@H](Cc1c[nH]cn1)C(=O)N[C@@H](Cc1c[nH]cn1)C(=O)N[C@@H](Cc1c[nH]cn1)C(=O)N[C@@H](CC(=O)O)C(=O)N[C@H](C(=O)N[C@@H](CC(C)C)C(N)=O)C(C)CC)C(C)CC)c1cnc[nH]1 (stereo partly drawn) [11-KOD1, 11-Mrcpt-HISNHSHHHDIL-NH2] (Lauroyl-[X1][Ile(3ξ)]SNHSHHHD[Ile(3ξ)]L-NH2)	specific for the WHN-N protein
CCCCCCCCCCCC(=O)N[C@H](C(=O)N1CCC[C@H]1C(=O)N[C@H](C(=O)N[C@@H](Cc1ccc(O)cc1)C(=O)N[C@@H](Cc1c[nH]cn1)C(=O)N[C@@H](CCCCN)C(=O)N[C@@H](CC(C)C)C(N)=O)C(C)CC)[C@@H](C)O (some centres unmarked) [11-KOD7, 11-Mrcpt-TPIYHKL-NH2] (Lauroyl-TP[Ile(3ξ)]YHKL-NH2)	specific for SARS-CoV-2 virus
